One block for each molecule: values may come before it.
Key:
[1] = target: Bifunctional 3'-5' exonuclease/ATP-dependent helicase WRN (Homo sapiens, UniProt Q14191); assay: Inhibition of WRN helicase (unknown origin)
[2] = target: T1, DNA repair protein RAD51 homolog 1 (Homo sapiens) (UniProt Q06609); assay: Inhibition of RAD51 in human MCF7 cells assessed as reduction in IR-induced RAD51 foci formation at 20 uM; assay type: cell-based
T1 sequence (whole entry): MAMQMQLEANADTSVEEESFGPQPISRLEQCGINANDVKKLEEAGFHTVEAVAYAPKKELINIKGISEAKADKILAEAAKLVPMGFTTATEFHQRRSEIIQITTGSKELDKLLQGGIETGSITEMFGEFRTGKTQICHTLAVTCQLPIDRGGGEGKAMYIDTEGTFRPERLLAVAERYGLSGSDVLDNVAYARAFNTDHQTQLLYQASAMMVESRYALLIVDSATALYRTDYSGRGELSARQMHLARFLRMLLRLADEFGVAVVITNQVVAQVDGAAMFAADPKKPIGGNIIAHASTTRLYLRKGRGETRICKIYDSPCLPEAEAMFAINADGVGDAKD

[3] = target: T1, DNA repair protein RAD51 homolog 1 (Homo sapiens); assay: Inhibition of RAD51 in human HeLa cells expressing DR-GFP construct assessed as reduction in […]-induced homologous recombination at 20 uM; assay type: cell-based
[4] = target: T1, DNA repair protein RAD51 homolog 1 (Homo sapiens); assay: Induction of RAD51 in cisplatin-treated neonatal human skin fibroblast assessed as increase in survival at 7.5 uM relative to untreated control
[5] = target: T2, DNA repair and recombination protein RAD54-like (Homo sapiens, UniProt Q92698); assay: Inhibition of RAD54 (unknown origin) ATPase activity assessed as generation of reactive oxygen species
T2 sequence (Q92698 whole entry): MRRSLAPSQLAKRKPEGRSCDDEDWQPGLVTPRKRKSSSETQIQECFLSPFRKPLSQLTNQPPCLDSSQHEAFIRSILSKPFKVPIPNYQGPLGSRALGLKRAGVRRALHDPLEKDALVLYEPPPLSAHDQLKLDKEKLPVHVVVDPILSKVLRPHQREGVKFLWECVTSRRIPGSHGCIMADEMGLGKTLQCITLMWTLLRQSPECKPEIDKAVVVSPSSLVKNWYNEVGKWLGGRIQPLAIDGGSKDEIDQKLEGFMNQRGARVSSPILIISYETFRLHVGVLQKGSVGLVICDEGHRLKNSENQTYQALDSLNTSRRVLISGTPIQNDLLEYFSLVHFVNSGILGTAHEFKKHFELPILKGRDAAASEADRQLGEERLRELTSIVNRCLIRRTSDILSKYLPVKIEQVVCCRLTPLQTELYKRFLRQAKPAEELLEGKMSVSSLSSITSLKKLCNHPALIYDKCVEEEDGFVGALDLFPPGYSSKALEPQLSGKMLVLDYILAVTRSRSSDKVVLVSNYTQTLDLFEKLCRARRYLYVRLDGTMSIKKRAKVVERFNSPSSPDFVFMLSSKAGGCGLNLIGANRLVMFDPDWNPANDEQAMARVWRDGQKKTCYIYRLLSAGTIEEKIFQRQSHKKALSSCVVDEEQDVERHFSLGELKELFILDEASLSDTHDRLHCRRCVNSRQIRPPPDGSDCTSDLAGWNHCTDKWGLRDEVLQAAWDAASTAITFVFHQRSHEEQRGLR

[6] = target: DNA repair protein RAD51 homolog 1 (Homo sapiens) (UniProt Q06609); assay: Inhibition of RAD51 (unknown origin) binding to ssDNA

Bifunctional 3'-5' exonuclease/ATP-dependent helicase WRN, sequence (Q14191 whole entry): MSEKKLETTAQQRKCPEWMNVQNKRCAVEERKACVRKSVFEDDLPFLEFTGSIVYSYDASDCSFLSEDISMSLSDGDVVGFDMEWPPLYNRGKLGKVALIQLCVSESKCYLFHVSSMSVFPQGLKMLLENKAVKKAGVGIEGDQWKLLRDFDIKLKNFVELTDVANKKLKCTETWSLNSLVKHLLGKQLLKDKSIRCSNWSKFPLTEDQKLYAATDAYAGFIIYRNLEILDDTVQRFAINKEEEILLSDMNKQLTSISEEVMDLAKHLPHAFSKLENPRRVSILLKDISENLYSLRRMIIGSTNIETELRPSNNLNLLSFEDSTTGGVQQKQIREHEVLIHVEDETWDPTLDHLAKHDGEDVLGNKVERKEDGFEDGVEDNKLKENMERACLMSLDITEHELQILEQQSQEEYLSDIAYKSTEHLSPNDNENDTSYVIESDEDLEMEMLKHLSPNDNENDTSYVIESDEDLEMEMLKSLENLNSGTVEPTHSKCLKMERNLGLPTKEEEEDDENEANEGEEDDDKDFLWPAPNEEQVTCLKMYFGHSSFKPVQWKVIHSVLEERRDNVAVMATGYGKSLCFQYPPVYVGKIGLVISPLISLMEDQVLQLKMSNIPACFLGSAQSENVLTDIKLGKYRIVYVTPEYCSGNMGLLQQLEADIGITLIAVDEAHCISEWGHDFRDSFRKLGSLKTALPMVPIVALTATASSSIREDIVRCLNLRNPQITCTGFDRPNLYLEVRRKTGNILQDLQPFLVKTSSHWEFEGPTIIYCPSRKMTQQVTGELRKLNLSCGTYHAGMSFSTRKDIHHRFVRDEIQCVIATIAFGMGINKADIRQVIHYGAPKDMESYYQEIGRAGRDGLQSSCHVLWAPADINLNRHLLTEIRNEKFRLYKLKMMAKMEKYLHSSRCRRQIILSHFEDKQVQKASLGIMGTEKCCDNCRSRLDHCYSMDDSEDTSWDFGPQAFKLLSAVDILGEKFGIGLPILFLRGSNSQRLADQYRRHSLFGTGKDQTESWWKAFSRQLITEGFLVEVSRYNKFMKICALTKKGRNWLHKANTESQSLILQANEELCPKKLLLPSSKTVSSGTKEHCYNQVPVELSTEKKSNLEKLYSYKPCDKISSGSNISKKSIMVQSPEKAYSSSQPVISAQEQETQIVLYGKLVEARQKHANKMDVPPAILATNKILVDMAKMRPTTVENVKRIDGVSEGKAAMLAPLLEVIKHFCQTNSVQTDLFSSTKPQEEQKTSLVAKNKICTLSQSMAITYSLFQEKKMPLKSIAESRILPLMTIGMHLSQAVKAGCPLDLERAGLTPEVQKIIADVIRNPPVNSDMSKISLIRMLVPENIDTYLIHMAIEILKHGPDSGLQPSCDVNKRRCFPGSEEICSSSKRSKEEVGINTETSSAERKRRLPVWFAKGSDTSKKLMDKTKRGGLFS

SMILES: O=C(Nc1ccc(F)c(C(F)(F)F)c1)Nc1nnc(-c2ccncc2)s1
IC50 [1]: 5 µM

SMILES: O=S(=O)(Cc1ccccc1)N1C=Cc2ccccc2C1c1c[nH]c2ccccc12 (configuration not stated)
fold change (FC) [2]: 2
fold change (FC) [3]: 10

SMILES: O=C(Nc1ccc(Br)cc1)c1ccc(Br)c(S(=O)(=O)NCc2ccccc2)c1
fold change (FC) [4]: 1.5

SMILES: COc1ccc(C2=C(N3CCOCC3)C(=O)N(c3ccc(Cl)c(Cl)c3)C2=O)cc1
EC50 [6]: 44 µM

Second part, the molecule after the results:

EC50 [5]: 16.5 µM
SMILES: COC1=C(N)C(=O)c2nc(-c3nc(C(=O)O)c(C)c(-c4ccc(OC)c(OC)c4O)c3N)ccc2C1=O [STREPTONIGRIN]

IC50 [1]: 20 µM
SMILES: CCC(=O)OCN1C(=O)C=CC1=O

Reference: ChEMBL document CHEMBL3352588, “Targeting the homologous recombination pathway by small molecule modulators” (Bioorg Med Chem Lett, 2014)
